Data on 35 compounds can be found in patent publication US11612606B2, “8-aminoisoquinoline compounds and uses thereof” (priority 2018, dated 2023).

For orientation: Ki means the equilibrium dissociation constant of an inhibitor or competing ligand from its target.

Structures can show the parent of a compound that is named as a salt. Where only a bound is given, the exact number is not on record here.

Chain of HPK full length, T165E S171E (Q92918 whole entry T165E/S171E, looked up): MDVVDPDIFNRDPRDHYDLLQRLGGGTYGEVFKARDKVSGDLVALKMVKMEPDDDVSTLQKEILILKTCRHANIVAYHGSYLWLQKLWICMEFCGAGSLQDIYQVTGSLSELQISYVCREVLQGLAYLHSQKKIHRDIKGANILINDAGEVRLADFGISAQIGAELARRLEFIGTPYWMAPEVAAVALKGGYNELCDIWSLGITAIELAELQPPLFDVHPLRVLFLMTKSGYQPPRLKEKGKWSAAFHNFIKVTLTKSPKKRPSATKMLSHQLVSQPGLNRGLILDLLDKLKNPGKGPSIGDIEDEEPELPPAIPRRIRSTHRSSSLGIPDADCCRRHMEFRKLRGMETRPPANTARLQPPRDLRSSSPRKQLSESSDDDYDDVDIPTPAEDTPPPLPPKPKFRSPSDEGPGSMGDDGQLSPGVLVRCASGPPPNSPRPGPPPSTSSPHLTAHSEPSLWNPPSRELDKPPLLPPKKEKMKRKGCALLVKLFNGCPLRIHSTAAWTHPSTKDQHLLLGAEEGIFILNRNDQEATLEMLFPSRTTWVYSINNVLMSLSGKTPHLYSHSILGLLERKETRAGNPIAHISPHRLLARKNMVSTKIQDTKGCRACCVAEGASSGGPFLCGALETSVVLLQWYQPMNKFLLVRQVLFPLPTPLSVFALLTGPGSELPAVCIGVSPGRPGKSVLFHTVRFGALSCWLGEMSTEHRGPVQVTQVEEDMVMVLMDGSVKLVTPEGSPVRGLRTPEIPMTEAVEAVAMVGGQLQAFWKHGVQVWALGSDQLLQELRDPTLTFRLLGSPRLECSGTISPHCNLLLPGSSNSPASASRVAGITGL

The target of one assay is HPK full length, T165E S171E (Homo sapiens (Human), UniProt Q92918, S171E/T165E). Put plainly: HPK1-FL HTRF enzymatic assay ("HTRF"). The note with it: ATP 1 mM, read-out: HPK1 Ki. In kind it is biochemical. Put shortly:
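Full-length HPK1 (T165E/S171E) was preincubated 30 min with compound, then reacted 60 min with biotin-SLP-76 and 1 mM ATP. Phospho-SLP-76 was detected by HTRF (Eu-anti-pSLP76 antibody, SA-XL665) after a further 60 min.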
As for `Cc1c(-c2cc3cc(NC(=O)O[C@@H]4[C@@H]5COC[C@@H]54)ncc3c(N)c2F)cnc2c1NCCO2` [Compound 543b, (1R,5S,6r)-3-oxabicyclo[3.1.0]hexan-6-yl (8-amino-7-fluoro-6-(8-methyl-2,3-dihydro-1H-pyrido[2,3-b][1,4]oxazin-7-yl)isoquinolin-3-yl)carbamate], the Ki worked out at 0.083 nM. Turning to `Cc1c(-c2cc3cc(NC(=O)O[C@@H]4CC[C@H](O)C4)ncc3c(N)c2F)cnc2c1NCCO2` (single isomer, unassigned) [Compound 582b], the Ki was 0.02 nM.

As for `CNc1cncc(-c2cc3cc(NC(=O)O[C@H]4C[C@@](C)(O)C4)ncc3c(N)c2F)c1C` [Compound 527b, (1s,3s)-3-Hydroxy-3-methylcyclobutyl (8-amino-7-fluoro-6-(4-methyl-5-(methylamino)pyridin-3-yl)isoquinolin-3-yl)carbamate], the Ki worked out at 0.216 nM. As to `CC(=O)N1CC[C@@H](OC(=O)Nc2cc3cc(-c4cnc5c(c4C)NCCO5)c(F)c(N)c3cn2)C1` (single isomer, unassigned) [Compound 418a], the Ki was less than 0.013 nM. As for `Cc1c(-c2cc3cc(NC(=O)OC4CN(C5CC5)C4)ncc3c(N)c2F)cnc2c1NCCO2` [Compound 540, 1-Cyclopropylazetidin-3-yl (8-amino-7-fluoro-6-(8-methyl-2,3-dihydro-1H-pyrido[2,3-b][1,4]oxazin-7-yl)isoquinolin-3-yl)carbamate], the Ki came out at 0.021 nM. For the compound `Cc1c(-c2cc3cc(NC(=O)OC4CC5(C4)CN(C)C5)ncc3c(N)c2F)cnc2c1NCCC2` [Compound 425, 2-Methyl-2-azaspiro[3.3]heptan-6-yl (8-amino-7-fluoro-6-(4-methyl-5,6,7,8-tetrahydro-1,5-naphthyridin-3-yl)isoquinolin-3-yl)carbamate], the Ki was less than 0.013 nM. In the case of `CNc1cncc(-c2cc3cc(NC(=O)O[C@H]4C[C@](C)(O)C4)ncc3c(N)c2F)c1C` [Compound 527a, (1r,3r)-3-Hydroxy-3-methylcyclobutyl (8-amino-7-fluoro-6-(4-methyl-5-(methylamino)pyridin-3-yl)isoquinolin-3-yl)carbamate], the Ki was found to be 0.538 nM.

As for `Cc1c(-c2cc3cc(NC(=O)OC[C@]4(F)CCN(C)C4)ncc3c(N)c2F)cnc2c1NCCO2` (single isomer, unassigned) [Compound 451b], the inhibitory constant (Ki) is less than 0.013 nM. As to `Cc1c(-c2cc(N)c3cnc(NC(=O)O[C@H]4COC[C@@H]4C)cc3c2)cnc2c1NCCO2` (single isomer, unassigned) [Compound 556a, hydrochloride], the Ki was 0.032 nM. For the compound `CNC(=O)Nc1cc2cc(-c3cnc4c(c3C)NCCO4)c(F)c(N)c2cn1` [Compound 704, 1-(8-Amino-7-fluoro-6-(8-methyl-2,3-dihydro-1H-pyrido[2,3-b][1,4]oxazin-7-yl)isoquinolin-3-yl)-3-methylurea], the Ki was less than 0.013 nM. On to `Cc1c(-c2cc3cc(NC(=O)OC4CCOCC4)ncc3c(N)c2F)cnc2c1[C@H](O)CCO2` (single isomer, unassigned) [Compound 412b], for which the Ki was 0.29 nM. As to `Cc1c(-c2cc3cc(NC(=O)N[C@H]4COC[C@H]4F)ncc3c(N)c2F)cnc2c1NCCO2` (single isomer, unassigned) [Compound 724a], the Ki turned out to be 0.019 nM. As to `CO[C@@H]1COC[C@@H]1NC(=O)Nc1cc2cc(-c3cnc4c(c3C)NCCO4)c(F)c(N)c2cn1` (single isomer, unassigned) [Compound 723a], the Ki stood at 0.469 nM.

`Cc1c(-c2cc3cc(NC(=O)O[C@@H]4CC(=O)N(C(C)C)C4)ncc3c(N)c2F)cnc2c1NCCO2` (single isomer, unassigned) [Compound 479b]: the Ki is less than 0.013 nM. Regarding `Cc1c(-c2cc3cc(NC(=O)O[C@H]4CC(=O)N(C(C)C)C4)ncc3c(N)c2F)cnc2c1NCCO2` (single isomer, unassigned) [Compound 479a], the Ki stood at 0.021 nM. As to `Cc1c(-c2cc3cc(NC(=O)OC4CC5(C4)CN(CC(F)F)C5)ncc3c(N)c2F)cnc2c1NCCC2` [Compound 532, 2-(2,2-Difluoroethyl)-2-azaspiro[3.3]heptan-6-yl (8-amino-7-fluoro-6-(4-methyl-5,6,7,8-tetrahydro-1,5-naphthyridin-3-yl)isoquinolin-3-yl)carbamate], the Ki came out at 0.014 nM.

In the case of `Cc1c(-c2cc3cc(NC(=O)O[C@H]4[C@@H]5COC[C@@H]54)ncc3c(N)c2F)cnc2c1NCCO2` [Compound 543a, (1R,5S,6s)-3-oxabicyclo[3.1.0]hexan-6-yl (8-amino-7-fluoro-6-(8-methyl-2,3-dihydro-1H-pyrido[2,3-b][1,4]oxazin-7-yl)isoquinolin-3-yl)carbamate], the Ki was less than 0.013 nM. On to `Cc1c(-c2cc3cc(NC(=O)OC4CC5(C4)CN(CC(F)F)C5)ncc3c(N)c2F)cnc2c1NCCO2` [Compound 494, 2-(2,2-Difluoroethyl)-2-azaspiro[3.3]heptan-6-yl (8-amino-7-fluoro-6-(8-methyl-2,3-dihydro-1H-pyrido[2,3-b][1,4]oxazin-7-yl)isoquinolin-3-yl)carbamate], for which the Ki is less than 0.013 nM. Consider `Cc1c(-c2cc3cc(NC(=O)O[C@@H]4CC(=O)N(C)C4)ncc3c(N)c2F)cnc2c1NCCO2` (single isomer, unassigned) [Compound 410b], for which the Ki stood at 0.029 nM. For the compound `Cc1c(-c2cc3cc(NC(=O)OC4CCOCC4)ncc3c(N)c2F)cnc2c1[C@@H](O)CCO2` (single isomer, unassigned) [Compound 412a], the Ki stood at 41 nM. Regarding `Cc1c(-c2cc3cc(NC(=O)OC4CC5(CCN(C)C5)C4)ncc3c(N)c2F)cnc2c1NCCO2` (centres unmarked) [Compound 428, 6-Methyl-6-azaspiro[3.4]octan-2-yl (8-amino-7-fluoro-6-(8-methyl-2,3-dihydro-1H-pyrido[2,3-b][1,4]oxazin-7-yl)isoquinolin-3-yl)carbamate], the Ki was less than 0.013 nM.

Take `Cc1c(-c2cc3cc(NC(=O)N[C@@H]4CCOC4)ncc3c(N)c2F)cnc2c1NCCO2` (single isomer, unassigned) [Compound 722a]: the Ki is less than 0.013 nM. With `Cc1c(-c2cc3cc(NC(=O)N[C@H]4C[C@@]5(CCOC5)C4)ncc3c(N)c2F)cnc2c1NCCC2` [Compound 740b, 1-(8-Amino-7-fluoro-6-(4-methyl-5,6,7,8-tetrahydro-1,5-naphthyridin-3-yl)isoquinolin-3-yl)-3-((2r,4r)-6-oxaspiro[3.4]octan-2-yl)urea], the Ki was less than 0.013 nM. As to `COCCN1CC(OC(=O)Nc2cc3cc(-c4cnc5c(c4C)NCCO5)c(F)c(N)c3cn2)C1` [Compound 474, 1-(2-Methoxyethyl)azetidin-3-yl (8-amino-7-fluoro-6-(8-methyl-2,3-dihydro-1H-pyrido[2,3-b][1,4]oxazin-7-yl)isoquinolin-3-yl)carbamate], the Ki is 0.06 nM. As to `CO[C@H]1C[C@H](NC(=O)Nc2cc3cc(-c4cnc5c(c4C)NCCO5)c(F)c(N)c3cn2)C1` [Compound 733a, 1-[8-Amino-7-fluoro-6-(8-methyl-2,3-dihydro-1H-pyrido[2,3-b][1,4]oxazin-7-yl)-3-isoquinolyl]-3-(3-methoxycyclobutyl)urea], the Ki is less than 0.013 nM. Same read-out and setting: as for `Cc1c(N)cncc1-c1cc2cc(NC(=O)O[C@H]3C[C@@H](C#N)C3)ncc2c(N)c1F` [Compound 534a, (1s,3s)-3-Cyanocyclobutyl (8-amino-6-(5-amino-4-methylpyridin-3-yl)-7-fluoroisoquinolin-3-yl)carbamate], the figure is 0.14 nM; as for `Cc1c(-c2cc3cc(NC(=O)O[C@H]4C[C@@H](C#N)C4)ncc3c(N)c2F)cnc2c1NCCC2` [Compound 483a, (1s,3s)-3-Cyanocyclobutyl (8-amino-7-fluoro-6-(4-methyl-5,6,7,8-tetrahydro-1,5-naphthyridin-3-yl)isoquinolin-3-yl)carbamate], less than 0.013 nM; as for `Cc1c(-c2cc3cc(NC(=O)OC4CC5(C4)CN(C)C5)ncc3c(N)c2F)cnc2c1NCCO2` [Compound 417, 2-Methyl-2-azaspiro[3.3]heptan-6-yl (8-amino-7-fluoro-6-(8-methyl-2,3-dihydro-1H-pyrido[2,3-b][1,4]oxazin-7-yl)isoquinolin-3-yl)carbamate], less than 0.013 nM.

For `Cc1c(-c2cc3cc(NC(=O)N(C)C4CCC4)ncc3c(N)c2F)cnc2c1NCCO2` [Compound 752, 3-(8-Amino-7-fluoro-6-(8-methyl-2,3-dihydro-1H-pyrido[2,3-b][1,4]oxazin-7-yl)isoquinolin-3-yl)-1-cyclobutyl-1-methylurea], the Ki stood at 0.52 nM. On to `Cc1c(-c2cc3cc(NC(=O)O[C@@H]4CC[C@@H]4C)ncc3c(N)c2F)cnc2c1NCCO2` (single isomer, unassigned) [Compound 559a], for which the Ki came out at 0.025 nM.

With `Cc1c(-c2cc3cc(NC(=O)O[C@H]4CO[C@@]5(CCN(C)C5)C4)ncc3c(N)c2F)cnc2c1NCCO2` (single isomer, unassigned) [Compound 467d], the Ki was less than 0.013 nM.

Turning to `CN[C@@H]1CCCC[C@H]1OC(=O)Nc1cc2cc(-c3cnc4c(c3C)NCCO4)c(F)c(N)c2cn1` (single isomer, unassigned) [Compound 415b], the Ki worked out at 16 nM.

Staying with this assay, now noted: HPK1 Ki, ATP 1 mM.
In turn, `Cc1c(-c2cc3cc(NC(=O)O[C@H]4C[C@@H](N5CCOCC5)C4)ncc3c(N)c2F)cnc2c1NCCO2` [Compound 550b, (1s,3s)-3-Morpholinocyclobutyl (8-amino-7-fluoro-6-(8-methyl-2,3-dihydro-1H-pyrido[2,3-b][1,4]oxazin-7-yl)isoquinolin-3-yl)carbamate] came in with a Ki of 0.054 nM. Compound `Cc1c(-c2cc3cc(NC(=O)N[C@@H]4CCOC[C@@H]4F)ncc3c(N)c2F)cnc2c1NCCO2` (single isomer, unassigned) [Compound 747b] had a Ki of less than 0.013 nM. Compound `CO[C@H]1CC[C@@H](NC(=O)Nc2cc3cc(-c4cnc5c(c4C)NCCO5)c(F)c(N)c3cn2)C1` [Compound 730c, 1-(8-amino-7-fluoro-6-(8-methyl-2,3-dihydro-1H-pyrido[2,3-b][1,4]oxazin-7-yl)isoquinolin-3-yl)-3-((1R,3S)-3-methoxycyclopentyl)urea] showed a Ki of less than 0.013 nM.
